# Source: paper PMC8844914, “Structural Basis for the Peptidoglycan-Editing Activity of YfiH” (mBio, 2022)
# What was measured:
# [1] = molecular target: T1, MurC (Escherichia coli, UniProt P17952); assay: ligase reaction, product UDP-MurNAc-Gly by mass spectrometry; assay type: biochemical; conditions: 18 mM Gly, 1 mM UDP-MurNAc, 5 mM ATP, 20 uM MurC, 24 h; low yield
# T1 construct: C-terminal 6xHis tag (pET21a), expressed in E. coli BL21(DE3)
# [2] = molecular target: T2, YfiH (PgeF) (Escherichia coli, UniProt P33644, C107A); assay: X-ray crystal structure, […] A; assay type: binding; conditions: endogenous ligand copurified from E. coli; pH 5.4; active-site groove
# T2 construct: full length, C-terminal 6xHis tag (pET21a), expressed in E. coli BL21(DE3); Met1 not seen in crystal
# [3] = molecular target: T3, MurD (Escherichia coli, UniProt P14900); assay: ligase reaction, product by HPLC and ESI-MS; assay type: biochemical; conditions: 2 mM D-glutamate, 5 mM ATP, 10 mM MgCl2, pH 8.0, 37 C; preparative synthesis with MurC and MurD
# T3 construct: C-terminal 6xHis tag (pET21a), expressed in E. coli BL21(DE3)
# T3 sequence (P14900 2-438): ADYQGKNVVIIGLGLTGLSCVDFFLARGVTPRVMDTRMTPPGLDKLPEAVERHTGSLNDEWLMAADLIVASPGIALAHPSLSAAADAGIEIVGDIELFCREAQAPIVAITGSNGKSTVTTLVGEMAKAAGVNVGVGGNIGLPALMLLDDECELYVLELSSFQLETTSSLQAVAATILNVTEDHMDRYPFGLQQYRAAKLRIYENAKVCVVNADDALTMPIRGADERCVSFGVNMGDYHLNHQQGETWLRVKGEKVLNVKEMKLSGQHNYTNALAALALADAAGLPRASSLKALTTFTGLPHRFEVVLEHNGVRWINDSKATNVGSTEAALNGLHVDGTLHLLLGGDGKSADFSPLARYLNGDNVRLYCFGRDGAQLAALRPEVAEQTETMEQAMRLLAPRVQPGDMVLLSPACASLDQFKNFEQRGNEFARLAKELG
# [4] = molecular target: T2, YfiH (PgeF); assay: X-ray crystal structure, […] A; assay type: binding; conditions: soaked into YfiH-C107A crystals; pH 5.4; active-site groove
# T2 sequence (P33644 whole entry C107A): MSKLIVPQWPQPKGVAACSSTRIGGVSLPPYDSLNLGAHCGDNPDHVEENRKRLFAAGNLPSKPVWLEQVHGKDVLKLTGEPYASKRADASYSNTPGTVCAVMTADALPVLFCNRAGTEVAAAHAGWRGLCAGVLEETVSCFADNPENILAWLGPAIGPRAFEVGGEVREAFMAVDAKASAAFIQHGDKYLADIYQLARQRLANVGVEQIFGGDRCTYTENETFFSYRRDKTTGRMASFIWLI
# T1 sequence (P17952 whole entry): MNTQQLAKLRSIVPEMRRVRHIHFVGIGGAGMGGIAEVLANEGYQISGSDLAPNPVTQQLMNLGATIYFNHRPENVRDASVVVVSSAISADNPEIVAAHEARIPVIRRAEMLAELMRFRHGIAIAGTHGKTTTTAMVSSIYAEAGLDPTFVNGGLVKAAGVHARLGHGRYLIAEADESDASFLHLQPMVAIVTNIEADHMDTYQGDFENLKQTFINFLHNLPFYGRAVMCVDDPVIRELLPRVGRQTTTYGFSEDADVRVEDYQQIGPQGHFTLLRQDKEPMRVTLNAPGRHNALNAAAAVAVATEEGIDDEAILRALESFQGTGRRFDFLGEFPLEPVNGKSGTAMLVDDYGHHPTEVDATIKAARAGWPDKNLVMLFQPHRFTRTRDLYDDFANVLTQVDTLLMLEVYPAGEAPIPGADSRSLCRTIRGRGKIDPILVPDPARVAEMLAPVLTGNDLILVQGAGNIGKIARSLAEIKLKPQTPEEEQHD
compound,measurement,setting,value
"NCC(=O)O [Gly, glycine]","ligase reaction, product UDP-MurNAc-Gly by mass spectrometry",[1],"enzymatic synthesis with MurC, using glycine as a substrate"
"CC(=O)N[C@H]1[C@@H](OP(=O)(O)OP(=O)(O)OC[C@H]2O[C@@H](n3ccc(=O)[nH]c3=O)[C@H](O)[C@@H]2O)O[C@H](CO)[C@@H](O)[C@@H]1O[C@H](C)C(=O)O [UM, UDP-MurNAc]","X-ray crystal structure, 1.47 A",[2],This compound was unambiguously identified as UDP-MurNAc based on its high-resolution map
"CC(=O)N[C@H]1[C@@H](OP(=O)(O)OP(=O)(O)OC[C@H]2O[C@@H](n3ccc(=O)[nH]c3=O)[C@H](O)[C@@H]2O)O[C@H](CO)[C@@H](O)[C@@H]1O[C@H](C)C(=O)N[C@@H](C)C(=O)O [UMA, UDP–MurNAc–L-Ala]","ligase reaction, product by HPLC and ESI-MS",[3],we further synthesized UDP–MurNAc–L-Ala–D-Glu (UMAE)
"CC(=O)N[C@H]1[C@@H](OP(=O)(O)OP(=O)(O)OC[C@H]2O[C@@H](n3ccc(=O)[nH]c3=O)[C@H](O)[C@@H]2O)O[C@H](CO)[C@@H](O)[C@@H]1O[C@H](C)C(=O)N[C@@H](CO)C(=O)O [UMS, UDP–MurNAc–L-Ser]","X-ray crystal structure, 1.86 A",[4],we obtained the crystals of YfiH bound to UDP–MurNAc–L-Ser
same,"ligase reaction, product by HPLC and ESI-MS",[3],UDP–MurNAc–L-Ser–D-Glu (UMSE) with recombinant MurD
